Measurements as given in PMC11571207, “Stereorandomized Oncocins with Preserved Ribosome Binding and Antibacterial Activity” (Journal of Medicinal Chemistry, 2024).
Where two headings read alike, the source gives them in different places. No end group written: not given here.

Assays:
[1] = system: E. coli ribosome, U2506 of the 23S rRNA; experiment: Ribosome footprinting (CMCT modification of U2506); type: binding; conditions: 1 μM peptide, 10.5 μM CMCT, purified E. coli ribosomes (5 pmol), 25 °C; primer extension, sequencing gel
Experimental: A 5 mL culture of E. coli MG1655 (WT-cells) was grown in LB overnight (220 rpm, 37 °C). One liter LB medium was inoculated, and bacteria were grown to OD = 0.6 (220 rpm. 37 °C); cells were centrifuged in centrifuge bottles, and the pellet was resuspended in ice-cold water and transferred in 50 mL falcon tubes. Falcon tubes were centrifuged, the supernatant was removed, the pellet was resuspended in 15 mL polysome buffer (TRIS/HCl pH 7.5 20 mM, NH4Cl 100 mM, MgCl2 10 mM, EDTA 0.5 mM, β-mercaptoethanol 60 mM), frozen dropwise in N2 (l), and stored at −80 °C. The cells were ground in CryoMil with the standard program (1 min precooling, 2 min grinding 5/s, 2 min cooling, 2 min grinding 5/s). The powder was transferred in 50 mL falcon tubes containing N2 (l) and stored at −80 °C. The lysates were thawed with a water bath (30 °C), put on ice, transferred to precooled Eppendorf tubes, and centrifuged (5000 g, 2 min, 4 °C). The clear lysate was transferred to new precooled tubes, centrifuged (14 000 g, 10 min, 4 °C), and the supernatant was transferred to new precooled tubes. 300 mL of clear lysate was loaded on a 10–50% sucrose gradient in CMCT buffer (K-borate buffer pH 8 80 mM, MgCl2 25 mM, NH4Cl 100 mM) and ultracentrifuged (3 h, 234 050 g, 4 °C). The fractions containing monosomes and polysomes were collected and ultracentrifuged overnight (16 h, 260 800 g, 4 °C). The supernatant was discarded, and the pellet was washed with ice-cold CMCT buffer. The ribosomes were resuspended in 100 μL CMCT buffer with a mini magnetic stirring bar and stored on ice. The concentration of ribosomes was measured in 1/200 dilution in water.
Ribosomes (5 pmol) were mixed with 8 μL of CMCT buffer, the compound of interest 1 μM, and water to a final volume of 20 μL in a precooled tube and incubated at 25 °C for 10 min. 20 μL of CMCT (10.5 μM) in water was added and incubated at 25 °C for 30 min. The reaction was stopped with 160 μL of EDTA (30 μM), and the samples were stored on ice.
160 μL portion of RNA resuspension buffer and 40 μL of 10% SDS were added, and the samples were vigorously resuspended. 400 μL of prewarmed acid phenol was added, and the samples were incubated on a thermomixer (5 min, 1200 rpm, 65 °C). The samples were put on ice for 5 min and centrifuged (5 min, 14 000 g, RT). The watery phase was transferred to a new precooled tube, 400 μL of phenol–chloroform–isoamyl alcohol (4 °C) was added, and the samples were mixed (5 min, 1200 rpm, RT). The samples were centrifuged again (5 min, 14 000g, RT), and the watery phase was transferred to another precooled tube. 34 μL of 3 M NaOAc pH 5.5, 0.8 μL of Glycoblue and 400 μL of isopropanol were added, and the samples were incubated for 3 h at −80 °C. The samples were then centrifuged (40 min, 21 000g, 4 °C), and the pellet was washed with ice-cold 70% EtOH. The residual liquid was removed, and the samples were dried (5 min, 37 °C). The samples were resuspended in 20 μL of water, the concentration was measured, and the samples were −80 °C.
Primers designed to probe the positions 2506 of the 23S rRNA (5-[sequence]-3′) were labeled with radioactive phosphate (γ^32 P-ATP). […] To prepare primers for one reaction, 1 μL of primer (0.3 μM), 0.4 μL of 5× PNK-buffer, 0.25 μL of water, 0.2 μL of γ^32 P-ATP, and 0.15 μL of T4 PNK were mixed and incubated at 37 °C.

[2] = system: P. aeruginosa ZEM9A; experiment: microbe, parasite or virus in culture; conditions: for MIC P. aeruginosa ZEM9A, 12.5% MHB / MIC P. aeruginosa ZEM9A, full MHB: clinical isolate, 16–20 h at 37 °C; for MIC P. aeruginosa ZEM9A, 12.5% MHB: 12.5% MHB pH 7.4; for MIC P. aeruginosa ZEM9A, full MHB: full MHB pH 7.4; for MIC P. aeruginosa ZEM9A: supplement CSV
Summary of the method: (§1)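 Minimal inhibitory concentrations come from broth microdilution in MH medium, with a top peptide concentration of 64 μg/mL halved serially.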

[3] = system: P. aeruginosa ZEM-1A; experiment: microbe, parasite or virus in culture; conditions: for MIC P. aeruginosa ZEM-1A, 12.5% MHB / MIC P. aeruginosa ZEM-1A, full MHB: clinical isolate, 16–20 h at 37 °C, cells marked c: single measurement (in duplicates); for MIC P. aeruginosa ZEM-1A, 12.5% MHB: 12.5% MHB pH 7.4; for MIC P. aeruginosa ZEM-1A, full MHB: full MHB pH 7.4; for MIC P. aeruginosa ZEM-1A: supplement CSV
Summary of the method: as §1

[4] = system: E. cloacae; experiment: microbe, parasite or virus in culture; conditions: for MIC E. cloacae, 12.5% MHB: 12.5% MHB pH 7.4; for MIC E. cloacae, 12.5% MHB / MIC E. cloacae, full MHB: 16–20 h at 37 °C; for MIC E. cloacae, full MHB: full MHB pH 7.4; for MIC E. cloacae: supplement CSV
Summary of the method: as §1

[5] = system: P. aeruginosa PA14 2P4 (pmrB); experiment: microbe, parasite or virus in culture; conditions: for MIC P. aeruginosa PA14 2P4 (pmrB), 12.5% MHB / MIC P. aeruginosa PA14 2P4 (pmrB), full MHB: polymyxin B resistant strain, 16–20 h at 37 °C; for MIC P. aeruginosa PA14 2P4 (pmrB), 12.5% MHB: 12.5% MHB pH 7.4; for MIC P. aeruginosa PA14 2P4 (pmrB), full MHB: full MHB pH 7.4; for MIC P. aeruginosa PA14 2P4: supplement CSV
Summary of the method: as §1

[6] = system: P. aeruginosa PA14; experiment: microbe, parasite or virus in culture; conditions: for MIC P. aeruginosa PA14, 12.5% MHB: 12.5% MHB pH 7.4; for MIC P. aeruginosa PA14, 12.5% MHB / MIC P. aeruginosa PA14, full MHB: 16–20 h at 37 °C, two different duplicate MIC determinations; for MIC P. aeruginosa PA14, full MHB: full MHB pH 7.4; for MIC P. aeruginosa PA14: supplement CSV
Summary of the method: as §1

[7] = system: human red blood cells; experiment: Hemolysis assay, minimum hemolytic concentration; conditions: for Haemolysis on hRBC, MHC: 2.5% human red blood cells (final) in 10 mM phosphate, 150 mM NaCl, pH 7.4, 25 °C, 4 h, visual inspection; for MHC human red blood cells: supplement CSV
[8] = system: P. aeruginosa PA14 4.18 (pmrB); conditions: for MIC P. aeruginosa PA14 4.18 (pmrB), 12.5% MHB / MIC P. aeruginosa PA14 4.18 (pmrB), full MHB: polymyxin B resistant strain, 16–20 h at 37 °C; for MIC P. aeruginosa PA14 4.18 (pmrB), 12.5% MHB: 12.5% MHB pH 7.4; for MIC P. aeruginosa PA14 4.18 (pmrB), full MHB: full MHB pH 7.4; for MIC P. aeruginosa PA14 4.18: supplement CSV

VDKPPYLPRPRPPRRIYNR [sr14Nterm-Onc] (VDKPPYLPRPRPPRRIYNR-NH2; also: residues 1-14 stereorandomized (1:1 L/D mixture))
Protection of U2506 of 23S rRNA from CMCT modification (band at C2507) [1]: did not protect U2506 from CMCT modification
MIC P. aeruginosa ZEM9A, 12.5% MHB [2]: >64/64 μg/mL
MIC P. aeruginosa ZEM9A, full MHB [2]: >64/64 μg/mL
MIC P. aeruginosa ZEM9A ([2]; 12.5% MH pH 7.4): 64 µg/mL
MIC P. aeruginosa ZEM9A ([2]; full MH pH 7.4): >64 µg/mL
MIC P. aeruginosa ZEM-1A, 12.5% MHB [3]: >64/>64 ^c μg/mL
MIC P. aeruginosa ZEM-1A, full MHB [3]: >64/>64 ^c μg/mL
MIC P. aeruginosa ZEM-1A ([3]; 12.5% MH pH 7.4): >64 µg/mL
MIC P. aeruginosa ZEM-1A ([3]; full MH pH 7.4): >64 µg/mL
MIC E. cloacae, 12.5% MHB [4]: 8 µg/mL
MIC E. cloacae, full MHB [4]: > 64 µg/mL
MIC E. cloacae ([4]; 12.5% MH pH 7.4): 8 µg/mL
MIC E. cloacae ([4]; full MH pH 7.4): >64 µg/mL
MIC P. aeruginosa PA14 2P4 (pmrB), 12.5% MHB [5]: 16 µg/mL
MIC P. aeruginosa PA14 2P4 (pmrB), full MHB [5]: > 64 µg/mL
MIC P. aeruginosa PA14 2P4 ([5]; 12.5% MH pH 7.4): 16 µg/mL
MIC P. aeruginosa PA14 2P4 ([5]; full MH pH 7.4): >64 µg/mL
MIC P. aeruginosa PA14, 12.5% MHB [6]: >64/64 μg/mL
MIC P. aeruginosa PA14, full MHB [6]: >64/64 μg/mL
MIC P. aeruginosa PA14 ([6]; 12.5% MH pH 7.4): 64 µg/mL
MIC P. aeruginosa PA14 ([6]; full MH pH 7.4): >64 µg/mL
Haemolysis on hRBC, MHC [7]: >1000 µg/mL
MHC human red blood cells [7]: >1000 µg/mL
MIC P. aeruginosa PA14 4.18 (pmrB), 12.5% MHB [8]: 32 µg/mL
MIC P. aeruginosa PA14 4.18 (pmrB), full MHB [8]: > 64 µg/mL
MIC P. aeruginosa PA14 4.18 ([8]; 12.5% MH pH 7.4): 32 µg/mL
MIC P. aeruginosa PA14 4.18 ([8]; full MH pH 7.4): >64 µg/mL

VDKPPYLPRPRPPRRIYNR [sr-Onc] (VDKPPYLPRPRPPRRIYNR-NH2; also: all 19 residues stereorandomized (1:1 L/D mixture))
Protection of U2506 of 23S rRNA from CMCT modification (band at C2507) [1]: did not protect U2506 from CMCT modification
MIC P. aeruginosa ZEM9A, 12.5% MHB [2]: 32 µg/mL
MIC P. aeruginosa ZEM9A, full MHB [2]: > 64 µg/mL
MIC P. aeruginosa ZEM9A ([2]; 12.5% MH pH 7.4): 32 µg/mL
MIC P. aeruginosa ZEM9A ([2]; full MH pH 7.4): >64 µg/mL
MIC P. aeruginosa ZEM-1A, 12.5% MHB [3]: >64/64 ^c μg/mL
MIC P. aeruginosa ZEM-1A, full MHB [3]: >64/64 ^c μg/mL
MIC P. aeruginosa ZEM-1A ([3]; 12.5% MH pH 7.4): 64 µg/mL
MIC P. aeruginosa ZEM-1A ([3]; full MH pH 7.4): >64 µg/mL
MIC E. cloacae, 12.5% MHB [4]: 8 µg/mL
MIC E. cloacae, full MHB [4]: > 64 µg/mL
MIC E. cloacae ([4]; 12.5% MH pH 7.4): 8 µg/mL
MIC E. cloacae ([4]; full MH pH 7.4): >64 µg/mL
MIC P. aeruginosa PA14 2P4 (pmrB), 12.5% MHB [5]: 16 µg/mL
MIC P. aeruginosa PA14 2P4 (pmrB), full MHB [5]: > 64 µg/mL
MIC P. aeruginosa PA14 2P4 ([5]; 12.5% MH pH 7.4): 16 µg/mL
MIC P. aeruginosa PA14 2P4 ([5]; full MH pH 7.4): >64 µg/mL
MIC P. aeruginosa PA14, 12.5% MHB [6]: 32 µg/mL
MIC P. aeruginosa PA14, full MHB [6]: > 64 µg/mL
MIC P. aeruginosa PA14 ([6]; 12.5% MH pH 7.4): 32 µg/mL
MIC P. aeruginosa PA14 ([6]; full MH pH 7.4): >64 µg/mL
Haemolysis on hRBC, MHC [7]: >1000 µg/mL
MHC human red blood cells [7]: >1000 µg/mL
MIC P. aeruginosa PA14 4.18 (pmrB), 12.5% MHB [8]: 32 µg/mL
MIC P. aeruginosa PA14 4.18 (pmrB), full MHB [8]: > 64 µg/mL
MIC P. aeruginosa PA14 4.18 ([8]; 12.5% MH pH 7.4): 32 µg/mL
MIC P. aeruginosa PA14 4.18 ([8]; full MH pH 7.4): >64 µg/mL
